In brackets after ≈: the same amount, converted by molar mass. Like-named read-outs stand apart in the source and are kept apart here. *1 amine or outer side, *2 acyl side, *3 side chain or, on linkers, in order; H or OH if unused. Where a SMILES comes first, the peptide text is derived from it. Bridges are numbered along the chain shown (N, C = ends). Roman numbers before positions name the chains, in order. [ ]: non-standard residue; d: D form. Actinocin(9to1) = Cc1c2oc3c(C)ccc(C(=O)[*:1])c3nc-2c(C(=O)[*:2])c(N)c1=O; NMeV = CN[C@H](C(=O)O)C(C)C; Sar = CNCC(=O)O
Legend:
[1] = test system: Mycobacterium smegmatis mc2155; assay: Resazurin reduction growth inhibition assay, M. smegmatis; assay type: cell-based; details: for IC50: Mycolicibacterium smegmatis, MC2155, growth inhibition, resazurin, means ± SEM of triplicates, read-out: IC50 against Mycobacterium smegmatis
[2] = test system: Salmonella enterica; assay: Antimicrobial spectrum assay, Salmonella enterica; assay type: cell-based; details: ND = no inhibition detected at maximum concentration tested (100 μg/mL)
[3] = test system: Mycobacterium bovis var BCG; assay: organism not typed; assay type: cell-based; details: for IC50: read-out: IC50 against Mycobacterium bovis var BCG
[4] = test system: Staphylococcus aureus; assay: Antimicrobial spectrum assay, Staphylococcus aureus; assay type: cell-based; details: for IC50: Staphylococcus aureus, read-out: IC50 against Staphylococcus aureus
[5] = molecular target: T1, Shikimate kinase (MtSK) (Mycobacterium tuberculosis, UniProt P9WPY3); assay: Recombinant MtSK inhibition, ADP coupling assay; assay type: biochemical, M. tuberculosis; details: for IC50: read-out: Inhibition Concentration (IC50), MtSK (converted); for Ki: read-out: inhibition constant (Ki), MtSK (converted)
T1 construct: made in house; host or cells: E. coli
Procedure: In this study, we conducted enzymatic assays to assess the inhibition of the pure compound isolated in this experiment. We also assayed control and standard drugs (rifampicin and actinomycin D). At this time, we focused on three essential enzymes in M. tuberculosis: Shikimate kinase (MtSK), phosphopantothenoylcysteine synthetase phosphopantothenoylcysteine decarboxylase (MtCoABC), and 5-enolpyruvylshikimate-3-phosphate synthase (MtEPSPS), based on docking results. All these enzymes were prepared as recombinant proteins expressed in E. coli (details not included in this study or unpublished data). For the MtSK inhibition assessment, we quantified the production of ADP in the reaction using a coupling assay, as previously described. In the case of MtCoABC and MtEPSPS inhibition, we employed a pyrophosphate assay with the BIOMOL® Green reagent (Enzo Life Sciences). All assays were conducted on a 96-well plate format, with each well having a final volume of 50 μL.

[6] = test system: Mycobacterium tuberculosis H37Rv; assay: Resazurin reduction growth inhibition assay, M. tuberculosis H37Rv; assay type: cell-based; details: for IC50: Mycobacterium tuberculosis, H37RV, read-out: IC50 against Mycobacterium tuberculosis H37Rv; for IC50 / IC50 against Mycobacterium tuberculosis H37Rv: means ± SEM of triplicates
[7] = test system: Bacillus subtilis; assay: Antimicrobial spectrum assay, Bacillus subtilis; assay type: cell-based; details: for IC50: Bacillus subtilis, read-out: IC50 against Bacillus subtilis
[8] = Solubility of the purified compound in solvents; assay type: physicochemical; details: qualitative
[9] = in vitro; details: human, DLD-1 colorectal adenocarcinoma cells
Procedure: The cytotoxicity assay involved the evaluation of cytotoxic effects on human cells using the colorectal adenocarcinoma cell line (DLD-1). The DLD-1 cells were cultured in a 75 cm^2 flask (Violamo) at 37 °C, with Roswell Park Memorial Institute (RPMI 1640) medium supplemented with 10 % FBS, 2.1 mM stable Glutamine, and 2.0 g/L NaHCO3. DLD-1 cells in a semiconfluent state were detached from the flask by incubating them with 5 mL of RPMI 1640 containing 0.25 % trypsin-EDTA to conduct the assay. After detachment, the DLD-1 cells were resuspended in RPMI 1640 supplemented with FBS, L-glutamine, and NaHCO3, and their cell viability was assessed using 0.4 % Trypan blue on a hemocytometer. Approximately 100 μL of the cell suspension, containing 3,000 cells, was added to each well of a 96-well clear-bottom plate. Cells were dispensed into the wells containing 2 μL of compounds dissolved in 50 % DMSO (final compound concentrations: 100, 20, 4, 0.8, and 0.2 μM and final DMSO concentration was 1 % each well). The culture plate was then incubated at 37 °C under 5 % CO2. Following 48 h of cultivation, 10 μL of Cell Counting Kit 8 (Dojindo, Japan) was added to each well, and the plates were further incubated for 2 h to examine cell growth and survival. The absorbance at 450 nm wavelength was measured using a microplate reader. The assay was conducted in triplicate for each dilution.

T1 sequence (P9WPY3 whole entry): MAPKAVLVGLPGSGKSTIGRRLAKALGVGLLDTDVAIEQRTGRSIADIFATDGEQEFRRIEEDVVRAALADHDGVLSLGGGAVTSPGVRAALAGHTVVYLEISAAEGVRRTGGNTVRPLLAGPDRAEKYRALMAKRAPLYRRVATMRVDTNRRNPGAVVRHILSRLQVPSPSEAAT

Which “IC50 against Mycobacterium smegmatis” value [1] does the source give for `Cc1c2oc3c(C)ccc(C(=O)N[C@@H]4C(=O)N[C@H](C(C)C)C(=O)N5CCC[C@H]5C(=O)N(C)CC(=O)N(C)[C@@H](C(C)C)C(=O)O[C@@H]4C)c3nc-2c(C(=O)N[C@@H]2C(=O)N[C@H](C(C)C)C(=O)N3CCC[C@H]3C(=O)N(C)CC(=O)N(C)[C@@H](C(C)C)C(=O)O[C@@H]2C)c(N)c1=O` [Actinomycin D, actinomycin D] (I: T[dV]P[Sar][NMeV] / II: T[dV]P[Sar][NMeV]; ester I:1-I:C, II:1-II:C; linker I:N-II:N via Actinocin(9to1)) here?
The value was 0.78 ± 0.21 µg/mL (≈ 0.621 µM).

What about the “IC50 against Salmonella enterica” value [2] of the same compound?
Its value is 14.65 ± 1.22 µg/mL (≈ 11.7 µM).

And the IC50 ([2]; Salmonella enterica, read-out: IC50 against Salmonella enterica)?
The IC50 was 14.7 µg/mL (≈ 11.7 µM).

What about the “IC50 against Mycobacterium bovis var BCG” value [3] of the same compound?
Its value is 0.8 ± 0.09 µg/mL (≈ 0.637 µM).

What about the “IC50 against Staphylococcus aureus” value [4] of the same compound?
Its value is under 0.3 µg/mL.

What about the IC50 [5] of the same compound?
The IC50 was 71.6 µM.

What about the Ki [5] of the same compound?
The Ki was 94.9 µM.

What about the IC50 ([6]; […]) of the same compound?
Its IC50 is 0.8 ± 0.12 µg/mL (≈ 0.637 µM).

And the “IC50 against Bacillus subtilis” value [7]?
Its value is under 0.3 µg/mL.

With `Cc1c2oc3c(C)ccc(C(=O)N[C@@H]4C(=O)N[C@H](C(C)C)C(=O)N5CCC[C@H]5C(=O)N(C)CC(=O)N(C)[C@@H](C(C)C)C(=O)O[C@@H]4C)c3nc-2c(C(=O)N[C@@H]2C(=O)N[C@H](C(C)C)C(=O)N3CCC[C@H]3C(=O)N(C)CC(=O)N(C)[C@@H](C(C)C)C(=O)O[C@@H]2C)c(N)c1=O` [F5(23), actinomycin D] (I: T[dV]P[Sar][NMeV] / II: T[dV]P[Sar][NMeV]; ester I:1-I:C, II:1-II:C; linker I:N-II:N via Actinocin(9to1)) as the compound, how does the IC50 [1] read?
Its IC50 is 0.74 ± 0.03 µg/mL (≈ 0.589 µM).

What about the “IC50 against Salmonella enterica” value [2] of the same compound?
Its value is “no inhibitory effect”.

What about the “increase in potency against M. bovis compared to actinomycin D” value [3] of the same compound?
The value was 10 fold.

What about the IC50 [3] of the same compound?
Its IC50 is 0.02 ± 0.01 µg/mL (≈ 0.0159 µM).

And the solubility in solvents [8]?
Its solubility in solvents is “soluble in dichloromethane, chloroform, methanol, ethyl acetate and DMSO”.

What about the IC50 [4] of the same compound?
Its IC50 is under 0.3 µg/mL.

And the IC50 ([5]; recombinant enzyme)?
Its IC50 is 32.8 µM.

And the Ki ([5]; recombinant enzyme)?
Its Ki is 46.2 µM.

What about the “increase in potency against M. tuberculosis compared to actinomycin D” value [6] of the same compound?
Its value is 10 fold.

What about the IC50 ([6]; growth inhibition, resazurin) of the same compound?
Its IC50 is 0.07 ± 0.009 µg/mL (≈ 0.0558 µM).

What about the “potency against M. tuberculosis compared to rifampicin” value ([6]; greater effect than rifampicin) of the same compound?
The value was about 10 fold.

What about the IC50 [7] of the same compound?
Its IC50 is under 0.3 µg/mL.

And the IC50 at 48 h [9]?
Its IC50 at 48 h is over 80 µg/mL.

With `CO[C@H]1/C=C/O[C@@]2(C)Oc3c(C)c(O)c4c(O)c(c(/C=N/N5CCN(C)CC5)c(O)c4c3C2=O)NC(=O)/C(C)=C\C=C\[C@H](C)[C@H](O)[C@@H](C)[C@@H](O)[C@@H](C)[C@H](OC(C)=O)[C@@H]1C` [Rifampicin] as the compound, how does the IC50 [1] read?
The IC50 was 0.48 ± 0.07 µg/mL (≈ 0.583 µM).

What about the IC50 [3] of the same compound?
The IC50 was under 0.03 µg/mL.

And the IC50 [4]?
Its IC50 is under 0.3 µg/mL.

And the “IC50 against Mycobacterium tuberculosis H37Rv” value ([6]; growth inhibition, resazurin)?
Its value is under 0.01 µg/mL.

What about the “IC50 against Mycobacterium tuberculosis H37Rv” value ([6]; growth inhibition, resazurin, listed as rifampicin) of the same compound?
Its value is 0.8 ± 0.12 µg/mL (≈ 0.972 µM).

And the IC50 [7]?
The IC50 was under 0.3 µg/mL.

Source: article PMC11336835 (Heliyon, 2024)
